Results on one compound are retold here after patent publication US6673780B2, “Sulfoxide and bis-sulfoxide compounds and compositions for cholesterol management and related uses” (Esperion Therapeutics, Inc., priority 2000, dated 2004).

The test system of assay [1] is obese female Zucker rats. Description: Two weeks of daily oral gavage treatment in chow-fed obese female Zucker rats. To be noted: 100 mg/kg daily oral gavage; for ratio of HDL/non-HDL cholesterol: pretreatment 2.70; for increase of total serum cholesterol: vs pretreatment. It counts as in vivo, rat. As for the experimental part:
Dosing vehicle of Compound A (100 mg/kg) was administered to 9-10 week old female obese Zucker rats (i.e. the fa/fa or leptin receptor deficient rat) daily for 14 days in the morning by oral gavage in 1.5 percent carboxymethylcellulose/0.2 percent […]. Tail vein blood for glucose determinations (without anesthesia) and orbital blood samples for serum (with anestehesia for all other determinations) were obtained following a 6 hour fast prior to the initial dose and after one and two weeks of dosing.
Blood serum were assayed for insulin, non-esterified fatty acids, […], total cholesterol, and triglycerides (FIG. 2). Glucose was determined in whole blood (Table 1). Blood serum was also used to produce lipoprotein cholesterol profiles (FIG. 2), and used to determine VLDL plus LDL cholesterol combined (also referred to as apoB containing lipoprotein cholesterol or non-HDL cholesterol), HDL cholesterol, and the ratio of HDL cholesterol to that of VLDL plus LDL cholesterol (FIG. 2). In addition, the effect of Compound A on weight gain after 14 days and the liver to body weight ratio at sacrifice are shown in FIG. 2.

Assay [2] relates to rat hepatocyte cells. The assay is described as follows: 14C-acetate incorporation into saponified and non-saponified lipids in hepatocytes. The following applies: 30 μM; 14C-acetate labeling 4 hr; relative to vehicle control. It counts as cell-based. As for the experimental part:
Washout buffer containing; 149 mM sodium chloride, 9.2 mM sodium N-2-hyroxyethylpiperazine-N′-2-ethanesulfonic acid, 1.7 mM fructose, 0.5 mM EGTA, 10 U/mL heparin at pH 7.5 and digestion buffer containing; 6.7 mM potassium chloride, 143 mM sodium chloride, 9.2 mM sodium N-2-hyroxyethylpiperazine-N′-2-ethanesulfonic acid, 5 mM calcium chloride-dihydrate, 1.7 mM fructose, 0.2% bovine serum albumin, 100 U/mL collagenase Type I, 93 U/mL Hyaluronidase, 160 BAEE/mL trypsin inhibitor at pH 7.5 were prepared. Solutions were oxygenate prior to perfusion. Wash buffer containing Dulbecco's Modified Eagle Medium (DMEM) containing 4.5 gm/L D-glucose, 2 mM GlutMax-1, 0.2% BSA, 5% fetal bovine serum (FBS), […], 1.2 μM hydrocortisone and DMEM+HS solution containing DMEM, 2 mM GlutMax-1, 20 nM delta-antinolevulinic acid, 17.4mM MEM non-essential amino acids, 20% FBS, 12 nM insulin and 1.2 μM hydrocortisone was prepared. DMEM solution containing DMEM, 2 mM GlutMax-1, 20 nM delta-aminolevulinic acid and 17.4 mM MEM non-essential amino acids were prepared. Male Sprague-Dawley rats weighing 125-250 gms were maintained on a standard rodent chow diet and freely given water. On the evening prior to cell isolation, selected healthy animals were fed restricted. […] The cell concentration was determined in several fields on the hemocytometer. […]

Consider `CC(C)(CO)CCCC[S+]([O-])CCCCC(C)(C)CO` [Compound A, 6-(5,5-Dimethyl-6-hydroxy-hexane-1-sulfinyl)-2,2-dimethyl-hexan-1-ol], for which the “blood glucose levels, pretreatment versus posttreatment” value in assay [1] (after one and two weeks, 6 hour fast) is listed as “similar”. Moreover, in assay [1] (after one week of treatment), the “increase in HDL cholesterol” value was determined as 2.2 fold, the “increase of non-HDL cholesterol (VLDL plus LDL cholesterol)” value is recorded as 38%, the “reduction of serum triglycerides” value turned out to be 48% and the “ratio of HDL/non-HDL cholesterol” value stood at 3.84. The “increase of total serum cholesterol” value in assay [1] (after one week of treatment) came to 98%. Moreover, in assay [1] (after two weeks of treatment), the “increase in HDL cholesterol” value came out at 3.1 fold, the “increase of non-HDL cholesterol (VLDL plus LDL cholesterol)” value is recorded as 62%, the “reduction of serum triglycerides” value is on record as 42% and the “ratio of HDL/non-HDL cholesterol” value is 4.97. The “increase of total serum cholesterol” value in assay [1] (after two weeks of treatment) is 74%. The “serum β-hydroxy butyrate” value in assay [1] (after two weeks, elevated from 2.35 pretreatment) is given as 3.94 mg/dL. The “serum non-esterified fatty acids” value in assay [1] (after two weeks, reduced from 2.28 pretreatment) came to 0.74 mmol/L. In addition, in assay [2], the “reduction of rate of non-saponifiable lipid synthesis” value came out at 54% and the “reduction of rate of saponifiable lipid synthesis” value turned out to be 25%.
